# Like-named read-outs stand apart in the source and are kept apart here.
# Legend:
# [1] = test system: Key Broadleaf Weed and Crop Species; test: Post-emergent Test II herbicidal activity (Table 5); format: in vivo; details: post-emergence, 336 h, 14 days after application; for pest or weed control at 70 g/ha: application rate 70 g ai/ha; for pest or weed control at 140 g/ha: application rate 140 g ai/ha
# Outline: (§1)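 Plants grown in Metro-Mix 360 (pH 6.0–6.8) in a greenhouse (~15 h photoperiod, 23–29 °C day) to first or second true leaf stage, then sprayed with compound in acetone/DMSO/aqueous crop-oil-surfactant carrier at 187 L/ha by track sprayer. Injury visually scored 0–100% versus untreated plants after 14 d.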
# [2] = test system: Key Grass and Sedge Weeds as well as Grass Crops; test: Post-emergent Test II herbicidal activity (Table 6); format: in vivo; details: post-emergence, 336 h
# Outline: as §1
# [3] = ABUTH: velvetleaf (Abutilon theophrasti), read-out: Visual Growth Reduction (%) 14 Days After Application, ABUTH
# [4] = AMARE: redroot pigweed (Amaranthus retroflexus), read-out: Visual Growth Reduction (%) 14 Days After Application, AMARE
# [5] = BRSNN: oilseed-rape, canola (Brassica napus), read-out: Visual Growth Reduction (%) 14 Days After Application, BRSNN
# [6] = CHEAL: lambsquarters (Chenopodium album), read-out: Visual Growth Reduction (%) 14 Days After Application, CHEAL
# [7] = EPHHL: wild poinsettia (Euphorbia heterophylla), read-out: Visual Growth Reduction (%) 14 Days After Application, EPHHL
# [8] = HELAN: sunflower (Helianthus annuus), read-out: Visual Growth Reduction (%) 14 Days After Application, HELAN
# [9] = VIOTR: wild pansy (Viola tricolor), read-out: Visual Growth Reduction (%) 14 Days After Application, VIOTR
structure (smiles),measurement,setting,value
C#Cc1ccc(-c2nc(N)c(OC)c(C(=O)O)n2)c(F)c1F [Compound 154],pest or weed control at 70 g/ha,[1]; [3],0 to 29%
same,pest or weed control at 140 g/ha,[1]; [3],45 to 59%
same,pest or weed control at 70 g/ha,[1]; [4],0 to 29%
same,pest or weed control at 140 g/ha,[1]; [4],0 to 29%
same,pest or weed control at 70 g/ha,[1]; [5],0 to 29%
same,pest or weed control at 140 g/ha,[1]; [5],60 to 74%
same,pest or weed control at 70 g/ha,[1]; [6],0 to 29%
same,pest or weed control at 140 g/ha,[1]; [6],45 to 59%
same,pest or weed control at 70 g/ha,[1]; [7],95 to 100%
same,pest or weed control at 140 g/ha,[1]; [7],95 to 100%
same,pest or weed control at 70 g/ha,[1]; [8],75 to 84%
same,pest or weed control at 140 g/ha,[1]; [8],75 to 84%
same,pest or weed control at 70 g/ha,[1]; [9],0 to 29%
same,pest or weed control at 140 g/ha,[1]; [9],0 to 29%
same,pest or weed control at 70 g/ha,"[2]; Triticum aestivum, TRZSS (wheat), application rate 70 g ai/ha, read-out: Visual Growth Reduction (%) 14 Days After Application, TRZSS",0 to 29%
same,pest or weed control at 140 g/ha,"[2]; Triticum aestivum, TRZSS (wheat), application rate 140 g ai/ha, read-out: Visual Growth Reduction (%) 14 Days After Application, TRZSS",0 to 29%
same,pest or weed control at 70 g/ha,"[2]; CYPES: yellow nutsedge (Cyperus esculentus), application rate 70 g ai/ha, read-out: Visual Growth Reduction (%) 14 Days After Application, CYPES",0 to 29%
same,pest or weed control at 140 g/ha,"[2]; CYPES: yellow nutsedge (Cyperus esculentus), application rate 140 g ai/ha, read-out: Visual Growth Reduction (%) 14 Days After Application, CYPES",0 to 29%
same,pest or weed control at 70 g/ha,"[2]; DIGSA: crabgrass (Digitaria sanguinalis), application rate 70 g ai/ha, read-out: Visual Growth Reduction (%) 14 Days After Application, DIGSA",0 to 29%
same,pest or weed control at 140 g/ha,"[2]; DIGSA: crabgrass (Digitaria sanguinalis), application rate 140 g ai/ha, read-out: Visual Growth Reduction (%) 14 Days After Application, DIGSA",0 to 29%
same,pest or weed control at 70 g/ha,"[2]; ECHCG: barnyardgrass (Echinochloa crus-galli), application rate 70 g ai/ha, read-out: Visual Growth Reduction (%) 14 Days After Application, ECHCG",45 to 59%
same,pest or weed control at 140 g/ha,"[2]; ECHCG: barnyardgrass (Echinochloa crus-galli), application rate 140 g ai/ha, read-out: Visual Growth Reduction (%) 14 Days After Application, ECHCG",45 to 59%
same,pest or weed control at 70 g/ha,"[2]; ORYSA: rice (Oryza sativa), application rate 70 g ai/ha, read-out: Visual Growth Reduction (%) 14 Days After Application, ORYSA",0 to 29%
same,pest or weed control at 140 g/ha,"[2]; ORYSA: rice (Oryza sativa), application rate 140 g ai/ha, read-out: Visual Growth Reduction (%) 14 Days After Application, ORYSA",0 to 29%
same,pest or weed control at 70 g/ha,"[2]; SETFA: giant foxtail (Setaria faberi), application rate 70 g ai/ha, read-out: Visual Growth Reduction (%) 14 Days After Application, SETFA",0 to 29%
same,pest or weed control at 140 g/ha,"[2]; SETFA: giant foxtail (Setaria faberi), application rate 140 g ai/ha, read-out: Visual Growth Reduction (%) 14 Days After Application, SETFA",0 to 29%
same,pest or weed control at 70 g/ha,"[2]; SORVU: grain sorghum (Sorghum vulgare), application rate 70 g ai/ha, read-out: Visual Growth Reduction (%) 14 Days After Application, SORVU",0 to 29%
same,pest or weed control at 140 g/ha,"[2]; SORVU: grain sorghum (Sorghum vulgare), application rate 140 g ai/ha, read-out: Visual Growth Reduction (%) 14 Days After Application, SORVU",0 to 29%
same,pest or weed control at 70 g/ha,"[2]; ZEAMX: maize, corn (Zea mays), application rate 70 g ai/ha, read-out: Visual Growth Reduction (%) 14 Days After Application, ZEAMX",0 to 29%
same,pest or weed control at 140 g/ha,"[2]; ZEAMX: maize, corn (Zea mays), application rate 140 g ai/ha, read-out: Visual Growth Reduction (%) 14 Days After Application, ZEAMX",0 to 29%
same,melting point,,142 to 144 °C
Nc1c(F)c(-c2ccc(I)c(F)c2)nc(C(=O)O)c1Cl [Compound 157],pest or weed control at 70 g/ha,[1]; [3],85 to 94%
same,pest or weed control at 140 g/ha,[1]; [3],85 to 94%
same,pest or weed control at 70 g/ha,[1]; [4],95 to 100%
same,pest or weed control at 140 g/ha,[1]; [4],95 to 100%
same,pest or weed control at 70 g/ha,[1]; [5],95 to 100%
same,pest or weed control at 140 g/ha,[1]; [5],95 to 100%
same,pest or weed control at 70 g/ha,[1]; [6],95 to 100%
same,pest or weed control at 140 g/ha,[1]; [6],95 to 100%
same,pest or weed control at 70 g/ha,[1]; [7],95 to 100%
same,pest or weed control at 140 g/ha,[1]; [7],95 to 100%
same,pest or weed control at 70 g/ha,[1]; [8],95 to 100%
same,pest or weed control at 140 g/ha,[1]; [8],95 to 100%
same,pest or weed control at 70 g/ha,[1]; [9],95 to 100%
same,pest or weed control at 140 g/ha,[1]; [9],95 to 100%
same,pest or weed control at 70 g/ha,"[2]; CYPES: yellow nutsedge (Cyperus esculentus), 70 g ai/ha, read-out: Visual Growth Reduction (%) 14 Days After Application, CYPES",45 to 59%
same,pest or weed control at 140 g/ha,"[2]; CYPES: yellow nutsedge (Cyperus esculentus), 140 g ai/ha, read-out: Visual Growth Reduction (%) 14 Days After Application, CYPES",45 to 59%
same,pest or weed control at 70 g/ha,"[2]; DIGSA: crabgrass (Digitaria sanguinalis), 70 g ai/ha, read-out: Visual Growth Reduction (%) 14 Days After Application, DIGSA",75 to 84%
same,pest or weed control at 140 g/ha,"[2]; DIGSA: crabgrass (Digitaria sanguinalis), 140 g ai/ha, read-out: Visual Growth Reduction (%) 14 Days After Application, DIGSA",85 to 94%
same,pest or weed control at 70 g/ha,"[2]; ECHCG: barnyardgrass (Echinochloa crus-galli), 70 g ai/ha, read-out: Visual Growth Reduction (%) 14 Days After Application, ECHCG",95 to 100%
same,pest or weed control at 140 g/ha,"[2]; ECHCG: barnyardgrass (Echinochloa crus-galli), 140 g ai/ha, read-out: Visual Growth Reduction (%) 14 Days After Application, ECHCG",95 to 100%
same,pest or weed control at 70 g/ha,"[2]; ORYSA: rice (Oryza sativa), crop, 70 g ai/ha, read-out: Visual Growth Reduction (%) 14 Days After Application, ORYSA",0 to 29%
same,pest or weed control at 140 g/ha,"[2]; ORYSA: rice (Oryza sativa), crop, 140 g ai/ha, read-out: Visual Growth Reduction (%) 14 Days After Application, ORYSA",0 to 29%
same,pest or weed control at 70 g/ha,"[2]; SETFA: giant foxtail (Setaria faberi), 70 g ai/ha, read-out: Visual Growth Reduction (%) 14 Days After Application, SETFA",95 to 100%
same,pest or weed control at 140 g/ha,"[2]; SETFA: giant foxtail (Setaria faberi), 140 g ai/ha, read-out: Visual Growth Reduction (%) 14 Days After Application, SETFA",95 to 100%
same,pest or weed control at 70 g/ha,"[2]; SORVU: grain sorghum (Sorghum vulgare), 70 g ai/ha, read-out: Visual Growth Reduction (%) 14 Days After Application, SORVU",85 to 94%
same,pest or weed control at 140 g/ha,"[2]; SORVU: grain sorghum (Sorghum vulgare), 140 g ai/ha, read-out: Visual Growth Reduction (%) 14 Days After Application, SORVU",95 to 100%
same,pest or weed control at 70 g/ha,"[2]; TRZSS (wheat, Triticum aestivum), crop, 70 g ai/ha, read-out: Visual Growth Reduction (%) 14 Days After Application, TRZSS",45 to 59%
same,pest or weed control at 140 g/ha,"[2]; TRZSS (wheat, Triticum aestivum), crop, 140 g ai/ha, read-out: Visual Growth Reduction (%) 14 Days After Application, TRZSS",45 to 59%
same,pest or weed control at 70 g/ha,"[2]; ZEAMX: maize, corn (Zea mays), crop, 70 g ai/ha, read-out: Visual Growth Reduction (%) 14 Days After Application, ZEAMX",95 to 100%
same,pest or weed control at 140 g/ha,"[2]; ZEAMX: maize, corn (Zea mays), crop, 140 g ai/ha, read-out: Visual Growth Reduction (%) 14 Days After Application, ZEAMX",95 to 100%
same,melting point,,140 to 150 °C (dec.)

# Reference: US9113629B2, “4-amino-6-(4-substituted-phenyl)-picolinates and 6-amino-2-(4-substituted-phenyl)-pyrimidine-4-carboxylates and their use as herbicides” (DOW AGROSCIENCES LLC, priority 2013, dated 2015)
